Tests used:
[1] = tested on: subjects with a diagnosis of MDD; test: HDRS17 / HAM-D6 depression ratings, diphenhydramine and placebo-controlled study (Example 2); type: in vivo, human; conditions: for Mean HAM-D6, change from baseline / mean HDRS17 anxiety/somatization factor score, change from baseline / Mean Adjusted HDRS17 (sleep items removed), change from baseline / Total HDRS17 mean score, change from baseline: Day 11; for Mean Adjusted HDRS17 (sleep items removed), change from baseline / Total HDRS17 mean score, change from baseline: q.d. in the evening
Text: (§1) Men and women with a diagnosis of MDD between the ages of 18 and 64, inclusive, were enrolled.
(§2) (once daily) in the evening over 10 days for women of child bearing potential (WOCBP) or 4 weeks for males and women of non-child bearing potential (WONCBP). […] Males and WONCBP took 1 capsule every evening just before bedtime from Day 1 to Day 28. WOCBP took 1 capsule every evening just before bedtime from Day 1 to Day 10. There were 2 follow up visits occurring at 3 and 14 days.
(§3) For the evaluation of symptoms of depression, assessments were done at screening and during the study. Specifically, symptoms of depression were performed using the Mini International Neuropsychiatric Interview (MINI) 6.0 interview, or Hamilton rating scale for Depression-17 (HDRS17). Also, polysomnography (PSG) was performed to quantify sleep stages including latency to persistent sleep (LSP) and total sleep time (TST). Thereafter, symptoms of depression were taking on days 11 and 29 during treatment and days 3 and 14 following treatment. PSG was recorded overnight after the first and tenth dose administration of study medication.
A HDRS17 total score was calculated by summing the 17 item scores taken during the study. A HDRS17 total score ranges from 0 to 52, with higher scores indicating greater severity of depression. In order to correct for a possible effect of study medication on sleep, sleep-related items were removed from the HDRS17 to calculate a (sleep item)-adjusted HDRS. Accordingly, an adjusted HDRS17 total score was calculated by summing the item scores excluding the 3 insomnia questions (4-Insomnia Early, 5-Insomnia Middle and 6-Insomnia Late). A HDRS17 adjusted total score ranges from 0 to 46. A 6-item subscale from the HDRS17 (HAM-D6) was analyzed and provided information to core depressive symptoms and is sensitive to treatment response. The six items included depressed mood, guilt feelings, work and interests, psychomotor retardation, psychic anxiety, and general somatics (tiredness and pains).
The HAM-D6 score was calculated by summing the 6 items scores, and ranges from 0 to 22. Higher scores indicate greater severity of core symptoms.

[2] = tested on: subjects with a diagnosis of MDD; test: Polysomnography (TST, LPS) in MDD study (Example 2); type: in vivo, human; conditions: for LPS compared to placebo / TST compared to placebo: overnight on Day 1/2
Text: as §1, §2, §3
The effects of study medication on polysomnography (PSG)-derived parameters was evaluated overnight on Days 1/2 and 10/11. In addition, PSG was recorded up to and following a forced wake overnight on Day 5/6. Two screening PSG recordings were made and baseline values were calculated as the average values recorded at Screening 1 and 2.
TST is defined as total minutes spent in rapid eye movement (REM) and non-REM sleep.
LPS is defined as the elapsed time (in minutes) from lights out to 10 minutes of continuous sleep.

[3] = tested on: subjects diagnosed with MDD; test: HDRS17 / HAM-D6 ratings, Group 1 monotherapy (Example 3); type: in vivo, human
Protocol: (§4) Specifically, Compound A was administered to subjects diagnosed with MDD (i) as a monotherapy and (ii) in combination with a known anti-depressant and the symptoms of depression of the subjects evaluated using the HDRS17 and HAM-D6 scale
(§5) Each subject in Group 2 also took an amount of antidepressant selected from duloxetine, citalopram, paroxetine, or sertraline and as prescribed by their attending physician. For the evaluation of symptoms of depression for both groups, assessments were independently performed at screening and on Day 11, i.e., one day after the study, using HDRS17 and HAM-D6 as described in Example 2. In Tables 11-12, # denotes the Cohen effect size, * denotes P<0.05 (statistically significant), and ** denotes P<0.01.

[4] = tested on: subjects diagnosed with MDD; test: HDRS17 / HAM-D6 ratings, Group 2 adjunctive to antidepressant (Example 3); type: in vivo, human
Protocol: as §4, §5

[5] = Plasma pharmacokinetics after single 20 mg oral dose of suspension or tablet formulation (Example 1); type: in vivo, Human
Protocol: This example was performed to determine the plasma pharmacokinetic (PK) and bioavailability of a solid dose formulation of [5(4,6-dimethyl-pyrimidin-2-yl)-hexahydro-pyrrolo[3,4-c]pyrrol-2-yl]-(2-fluoro-2-[1,2,3]triazol-2-yl-phenyl)-methanone (Compound A) after single dose tablet administration relative to a suspension formulation. Also addressed are the effect of a semi-fasted condition on the rate and extent of bioavailability of the solid dose formulation and tolerability of the solid and oral suspension formulations.
During each treatment period, blood samples were collected for PK measurements. Specifically, venous blood samples of 3 mL each were collected for determination of Compound plasma concentrations. The following plasma Compound A PK parameters were estimated using the actual times of blood sampling: • Cmax peak plasma concentration. • tmax time to reach the peak plasma concentration. • AUClast area under the plasma concentration-time curve from 0 to t hours post study drug dosing, calculated by trapezoidal summation (time t is the time of the last quantifiable concentration Clast). • AUC∞ AUClast extrapolated to infinity, calculated as AUClast+Clast/λz. • λz elimination rate constant, determined by linear regression of the terminal points of the ln-linear plasma concentration-time curve. • t1/2 terminal half-life, defined as 0.693/λz. • CL/F total clearance of drug after extravascular administration, uncorrected for absolute bioavailability, calculated as Dose/AUC∞. • Vd/F apparent volume of distribution after extravascular administration, uncorrected for absolute bioavailability.
Samples were prepared for testing using the following protocol: • (i) Plasma samples at room temperature were homogenized. • (ii) The samples were centrifuged for 5 minutes at about 2500×g and 20° C. • (iii) The plasma sample (50.0 μL) was pipetted into a 1.2 mL round well collection plate. • (iv) Stock Dilution Solvent (50.0 μL) was added to the blanks and the internal standard working solution was added to all other tube. […]

[6] = Posology: plasma pharmacokinetics after oral 20 mg and repeated nighttime administration (Example 2); type: in vivo, human
Protocol: Blood and saliva were collected for the assessment of biomarkers, among others. Venous blood samples (3 mL each) were collected in fasting condition between 8:00 and 10:00 am for the determination of [5(4,6-dimethyl-pyrimidin-2-yl)-hexahydro-pyrrolo[3,4-c]pyrrol-2-yl]-(2-fluoro-2-[1,2,3]triazol-2-yl-phenyl)-methanone plasma concentrations and biomarkers related to immune system activity, Hypothalamus pituitary adrenal (HPA) axis activation, neurotropic factors and metabolic factors were measured. Pharmacokinetic (PK) blood samples also were collected. Plasma samples were analyzed to determine concentrations of Compound A using LC-MS/MS. Saliva was collected for the measurement of concentrations of cortisol. Saliva concentrations of cortisol were added as a biomarker.
as §2
The magnitude of the effect of Compound A on LPS and TST is directly related to level of insomnia at baseline. See, FIGS. 12-15.

orexin-2 receptor = target: T1, orexin-2 receptor (Homo sapiens, UniProt O43614); test: Orexin-2 receptor antagonism (statement); conditions: orally active
T1 sequence (O43614 1-444): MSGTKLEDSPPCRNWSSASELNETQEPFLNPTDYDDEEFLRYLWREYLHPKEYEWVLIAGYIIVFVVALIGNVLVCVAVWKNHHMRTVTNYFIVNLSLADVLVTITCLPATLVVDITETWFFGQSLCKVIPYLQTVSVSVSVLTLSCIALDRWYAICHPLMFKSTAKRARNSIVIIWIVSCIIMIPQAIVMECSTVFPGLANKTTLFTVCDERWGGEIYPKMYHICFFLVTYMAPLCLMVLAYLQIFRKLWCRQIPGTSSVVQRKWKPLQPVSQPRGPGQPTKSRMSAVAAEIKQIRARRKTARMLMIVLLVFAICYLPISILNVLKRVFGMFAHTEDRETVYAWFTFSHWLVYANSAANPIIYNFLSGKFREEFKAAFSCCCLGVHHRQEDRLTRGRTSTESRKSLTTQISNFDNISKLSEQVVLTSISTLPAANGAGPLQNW

healthy subjects = test: Daytime administration in healthy subjects (statement); type: in vivo, human
[7] = tested on: subjects with insomnia disorder (ID); test: Nighttime administration in subjects with insomnia disorder (statement); type: in vivo, human
[8] = Group 2 (with antidepressant), Day 11

## CN(C)CCOC(c1ccccc1)c1ccccc1 [Diphenhydramine, diphenhydramine, reference compound]
[1]
  Mean HAM-D6, change from baseline: −1.8
  mean HDRS17 anxiety/somatization factor score, change from baseline: −0.9
  Mean Adjusted HDRS17 (sleep items removed), change from baseline: −2.3
  Total HDRS17 mean score, change from baseline: −4.1
[2]; Day 1/2
  Latency to Persistent Sleep (LPS), change from baseline: 6.7 min
  Total Sleep Time (TST), change from baseline: 28.3 min
[2]; Day 10/11
  Latency to Persistent Sleep (LPS), change from baseline: 0.3 min
  Total Sleep Time (TST), change from baseline: 33.92 min
[2]
  LPS compared to placebo: modestly reduced LPS
  TST compared to placebo: increased TST
[3]; Group 1, Day 11
  Adjusted HDRS mean score (SD), change from baseline: −2.1 (3.02)
  Anxiety-Somatization Factor mean score (SD), change from baseline: −0.8 (1.17)
  HAM-D6 mean score (SD), change from baseline: −1.7 (2.15)
  HDRS17 mean score (SD), change from baseline: −4.2 (4.00)
[4]; [8]
  Adjusted HDRS mean score (SD), change from baseline: −3.5 (0.71)
  Anxiety-Somatization Factor mean score (SD), change from baseline: −1.5 (0.71)
  HAM-D6 mean score (SD), change from baseline: −2.0 (1.41)
  HDRS17 mean score (SD), change from baseline: −3.5 (0.71)

## [5(4,6-dimethyl-pyrimidin-2-yl)-hexahydro-pyrrolo[3,4-c]pyrrol-2-yl]-(2-fluoro-2-[1,2,3]triazol-2-yl-phenyl)-methanone [Compound A]
[5]; 20 mg oral suspension, fasted
  mean t1/2: ~2 h
[5]; 20 mg tablet, fasting condition
  mean t1/2: ~5 h
[5]; 20 mg tablet, semi-fasted
  mean t1/2: ~2 h
[6]; nighttime administration, 10 days daily
  accumulation on repeated daily dosing: did not result in accumulation
[6]; oral 20 mg
  half-life: 2 to 3 h
  time to maximal plasma concentrations (Tmax): < 1 h
[1]; 20 mg q.d. in the evening
  antidepressant effect compared to placebo and diphenhydramine: larger and clinically relevant
[1]
  Mean HAM-D6, change from baseline: −3.8
  mean HDRS17 anxiety/somatization factor score, change from baseline: −1.6
  Mean Adjusted HDRS17 (sleep items removed), change from baseline: −4.5
  Total HDRS17 mean score, change from baseline: −5.5
[1]; after treatment discontinuation
  antidepressant effect sustained after treatment discontinuation: at least 14 days
[2]; Day 1/2
  Latency to Persistent Sleep (LPS), change from baseline: 8.7 min
  Total Sleep Time (TST), change from baseline: 30.9 min
[2]; Day 10/11
  Latency to Persistent Sleep (LPS), change from baseline: 9.2 min
  Total Sleep Time (TST), change from baseline: 26.56 min
[2]
  LPS compared to placebo: modestly reduced LPS
  TST compared to placebo: increased TST
[3]; Group 1, Day 11
  Adjusted HDRS Effect Size Compound A vs Placebo (Cohen effect size): −0.93
  Adjusted HDRS mean score (SD), change from baseline: −4.3 (2.97)*
  Anxiety-Somatization Factor Effect Size Compound A vs Placebo (Cohen effect size): −0.51
  Anxiety-Somatization Factor mean score (SD), change from baseline: −1.6 (1.65)
  HAM-D6 Effect Size Compound A vs Placebo (Cohen effect size): −1.22
  HAM-D6 mean score (SD), change from baseline: −3.6 (2.33)**
  HDRS17 Effect Size Compound A vs Placebo (Cohen effect size): −0.64
  HDRS17 mean score (SD), change from baseline: −5.1 (3.97)
[3]; untreated subjects with MDD
  antidepressant efficacy as monotherapy: has antidepressant efficacy
[4]; [8]
  Adjusted HDRS Effect Size Compound A vs Placebo (Cohen effect size): −1.06
  Adjusted HDRS mean score (SD), change from baseline: −5.5 (1.29)
  Anxiety-Somatization Factor Effect Size Compound A vs Placebo (Cohen effect size): −0.76
  Anxiety-Somatization Factor mean score (SD), change from baseline: −1.8 (0.50)
  HAM-D6 Effect Size Compound A vs Placebo (Cohen effect size): −1.49
  HAM-D6 mean score (SD), change from baseline: −4.8 (1.50)
  HDRS17 Effect Size Compound A vs Placebo (Cohen effect size): −0.37
  HDRS17 mean score (SD), change from baseline: −7.0 (3.37)
[4]; antidepressant drug-treated subjects with MDD
  antidepressant efficacy as adjunctive therapy: has antidepressant efficacy
orexin-2 receptor
  activity at orexin-2 receptor: selective antagonist
Healthy subjects
  somnolence: induced somnolence
[7]
  latency to persistent sleep (LPS): reduced
  total sleep time (TST): prolongs

Reference: US12201634B2, “Methods of treating depression using orexin-2 receptor antagonists” (Janssen Pharmaceutica NV, priority 2016, dated 2025)
